{"source": "ChEMBL document CHEMBL1158490", "about": "“Discovery of leukotriene A4 hydrolase inhibitors using metabolomics biased fragment crystallography” (J Med Chem, 2009)", "data": [{"target": "T1, Leukotriene A-4 hydrolase (Homo sapiens, UniProt P09960)", "T1 sequence (P09960 whole entry)": "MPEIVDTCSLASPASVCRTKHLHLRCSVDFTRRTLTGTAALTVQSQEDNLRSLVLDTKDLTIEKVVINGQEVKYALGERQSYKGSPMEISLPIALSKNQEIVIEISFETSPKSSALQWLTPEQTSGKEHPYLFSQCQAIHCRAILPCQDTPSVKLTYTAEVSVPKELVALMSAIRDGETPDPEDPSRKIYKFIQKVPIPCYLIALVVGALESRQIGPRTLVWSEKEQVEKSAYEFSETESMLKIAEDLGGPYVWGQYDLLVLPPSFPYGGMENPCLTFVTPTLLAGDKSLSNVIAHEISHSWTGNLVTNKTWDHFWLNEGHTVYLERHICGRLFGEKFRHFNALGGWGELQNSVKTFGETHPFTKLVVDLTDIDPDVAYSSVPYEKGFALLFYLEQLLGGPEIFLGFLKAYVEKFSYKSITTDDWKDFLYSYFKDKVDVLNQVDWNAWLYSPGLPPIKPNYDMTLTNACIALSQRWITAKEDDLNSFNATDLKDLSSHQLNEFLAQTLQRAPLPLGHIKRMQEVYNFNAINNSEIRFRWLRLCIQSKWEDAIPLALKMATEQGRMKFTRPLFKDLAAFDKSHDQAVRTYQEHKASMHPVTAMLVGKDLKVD", "experiment": "Inhibition of peptidase activity of human recombinant LTA4H expressed in Escherichia coli BL21-AI/pRARE", "units": {"IC50": "µM"}, "values": [{"smiles": "c1ccc(NCc2cccnc2)cc1", "IC50": 1320}, {"smiles": "Oc1ccc2[nH]ccc2c1", "IC50": "> 1000"}, {"smiles": "CNCc1ccccc1-c1cccs1", "IC50": 1080}, {"smiles": "Fc1ccc2[nH]ccc2c1", "IC50": "> 1000"}, {"smiles": "OC(c1ccncc1)c1ccc(OCCN2CCCC2)cc1", "note": "(centres undefined)", "IC50": 202}, {"smiles": "O=C(O)C1CCN(CCOc2ccc3[nH]ccc3c2)CC1", "IC50": 1490}, {"smiles": "c1cc2cc(OCCN3CCCC3)ccc2[nH]1", "IC50": 321}, {"smiles": "c1ccc(CNc2ccc(OC[C@H]3CCCN3)cc2)cc1", "IC50": 0.207}, {"smiles": "Oc1ccc(CCc2cc(O)cc(O)c2)cc1", "note": "[DIHYDRORESVERATROL]", "IC50": 145}]}]}
